Source: article PMC7343282, “Tissue Distribution of Several Series of Cationic Surfactants in Rainbow Trout (Oncorhynchus mykiss) Following Exposure via Water” (Environmental Science & Technology, 2020)

How the values were obtained:
[1] = system: rainbow trout (Oncorhynchus mykiss); assay: Apparent bioconcentration factor at end of 7-day exposure; format: in vivo
Procedure: Apparent BCFs (BCFapp) at the end of the 7-day exposure were calculated by dividing the surfactant body burden (including mucus) by the fish mass, and dividing this by the average measured concentration in water samples taken during the exposure phase. The BCFapp values ranged from 0.1 to 1260 (Table S18). Given the short exposure period, it is possible that the fish in this study had not approached steady state, in particular with respect to the distribution between water and internal tissues and between water and skin, and that the steady-state BCFs are higher. […] We note that some improvements in the methodology would be helpful, particularly with respect to the stability of the aqueous exposure concentration of the longest chain surfactants. Working with mixtures of analogue cationic surfactants allowed for consistent evaluation of differences in accumulation trends due to structural features.

[2] = system: rainbow trout (Oncorhynchus mykiss); assay: Surface area-normalized mucus-water and gill-water distribution coefficients; conditions: for Gill-water distribution coefficient (DG-W): from average concentrations in gills and water, calculated gill surface; for Mucus-water distribution coefficient (DMuc-W): from average concentrations in mucus and water
Procedure: For each mixture, the syringe pump was started in an aquarium containing no fish. After 16 h, to allow the concentrations to stabilize, 12 rainbow trout were added. After 7 d of exposure, the fish in the exposure aquaria as well as several unexposed (control) fish were sacrificed. Following stunning, blood was collected with a heparinized syringe from the caudal vein into a 2 mL Eppendorf tube. The fish were weighed and photographed, and the length was measured. The outer surface area of the fish was estimated from the fish weight according to O’Shea et al.[27] [drawing 1] 1
The gill surface area was estimated from the fish weight according to the equation specific for O. mykiss from a report by Hughes,[28] taken from ref ([29]) [drawing 2] 2
Because the mass of extracted mucus was not determined, the concentrations in mucus were normalized to the estimated fish’s total surface area (eq 1) excluding the head, which was not rinsed.
Surface area-normalized gill–water distribution coefficients (DG–W) were calculated from the average concentrations measured in gills and water, and a calculated gill surface based on rainbow trout specific scaling factors (eq 2). […] Unlike the skin, the gills were not rinsed with methanol, so the gill samples included gill mucus.

[3] = Table S2; cited from earlier work
[4] = ref Timmer and Droge (2017); cited from earlier work
[5] = Tissue concentrations in rainbow trout after 7 d exposure via water (two mixtures); format: in vivo, Oncorhynchus mykiss; conditions: rainbow trout (Oncorhynchus mykiss), in vivo
Procedure: (§1) The study was conducted with rainbow trout (Oncorhynchus mykiss) weighing between 98 and 165 g. The fish were purchased from Nordic trout Sweden AB and held in the aquaria facility prior to the experiment in February 2018. Ethical approval for the experiments was obtained from Stockholms djurförsöksetiska nämnd (decision 9967-2017). The experiments were conducted in 300 L fiberglass aquaria with a water renewal rate of 1.3 L min^–1 (MIX 1) and 1.45 L min^–1 (MIX 2). The water temperature was 10 °C and the pH 7.5. The water hardness was estimated to be 1.1 mM Ca^2+ based on information from the water supplier. The aquaria water was circulated through a filter of polyester wool at 800–1200 L h^–1 with an Eheim 2273 Pro 4+ pump. The outflow from the filter pump was placed above the water surface, providing for aeration. The lighting was dim and programmed on a 12 h light/12 h dark cycle. The fish were fed fish food pellets supplied by the fish farm at 1.0% of their body weight per day.
(§2) A solution of the test chemical mixture in methanol was infused continuously (3.5 and 3.8 μL min^–1 for MIX 1 and MIX 2, respectively) into the water inflow using a syringe pump. The intended concentrations of the chemicals in water ranged from 2.5 to 50 μg L^–1 (Table 1). They were selected with the help of modeled estimates of the BCF that were based on reported and extrapolated membrane water partition coefficients[7] and biotransformation rate constants predicted with quantitative structure activity relationships (QSARs)[24],[25] to parameterize the BIONIC model.[26] Based on these estimates, we selected an exposure concentration which would result in concentrations in fish that were clearly above the limit of quantification (LOQ) of the analytical method, while trying to keep the quantifiable exposure concentration as low as possible to minimize the risk of toxic effects and micelle formation (see comparison of intended concentrations with available toxicological data in Table S4).
(§3) The surface of the fish posterior of the gills was rinsed with 100% methanol to remove test chemical residues adsorbed to the outer surface of the skin and absorbed in the skin mucus. […] The fish were dissected and the liver, the kidney, the gills, and the remaining contents of the abdominal cavity were taken and weighed. Skin and muscle samples were prepared from the upper dorsal region on semi-frozen fish after the methanol rinse had removed the mucus. The main part of the subcutaneous fat tissue was included in the muscle samples rather than in the skin samples. All samples were stored frozen at −20 °C until further analysis.
(§4) For 6 fish from each aquarium and 3 control fish, samples of muscle, skin, liver, and gills were homogenized in a bullet blender (muscle and liver) (MiniG, SPEXsamplePrep) or in a cryo-mill (skin and gill) (Mixer mill cryomill, Retsch GmbH). A sub-sample of 0.5–1.2 g of the homogenate was extracted twice in methanol (4 mL, 50 °C, ultra-sound, 60 min), employing centrifugation at 4000 rpm for phase separation. Further information on the extraction efficiency of this method can be found in the Supporting Information (Table S5 and accompanying text). Isotope labeled standards of Q10 (D21), Q14 (D29), and P16 (D33) were added to a portion of the extract corresponding to 12–75 mg of the sample. The extract volume was adjusted to 3 mL with methanol and then cleaned up on a weak cationic exchange SPE column (WCX, 60 mg, 30 μm particle size, waters). Solvent elution was performed by gravity flow. The column was conditioned with 2 mL of methanol, followed by 2 mL of Milli-Q water adjusted to pH 7 with ammonium hydroxide to activate the ion exchange. The sample extract was loaded onto the column, and it was subsequently rinsed with 20 mL of methanol.

[6] = system: rainbow trout (Oncorhynchus mykiss); assay: as above; format: in vivo
Procedure: as §1, §2, §3, §4

[7] = Membrane-water partition/distribution coefficient; conditions: extrapolated from data of Timmer and Droge (2017)
[8] = rainbow trout (Oncorhynchus mykiss), in vivo, 7 d, pH 7.5
[9] = rainbow trout (Oncorhynchus mykiss), in vivo, 7 d
[10] = end of 7-day exposure, body burden including mucus
[11] = mean of exposed fish, Table S13
[12] = wet weight, mean of six fish (RSD %), 7 d exposure, Q10, Q14 below LOQ

CCCCCCCCCCCCN [P12, Dodecylamine]
Apparent bioconcentration factor (BCFapp) [1, 8]: 230 L kg-1 wet weight
Gill-water distribution coefficient (DG-W) [2]: 28 mLcm-2
Mucus-water distribution coefficient (DMuc-W) [2]: 16.3 mL cm-2
pKa [3]: 10.5
Log KMW,C (membrane-water partition coefficient of the charged form) [4]: 5.58
concentration at 7 d ([5]; Concentration in skin): 4630 ng/g
concentration at 7 d ([5]; pH 7.5, Concentration in blood): 558 ng/g
concentration at 7 d ([5]; pH 7.5, Concentration in gills): 18500 ng/g
concentration at 7 d ([5]; pH 7.5, Concentration in liver): 35600 ng/g
concentration at 7 d ([5]; pH 7.5, Concentration in skin): 2720 ng/g
Concentration in gills [6, 9]: 20 000 (10) ng g^–1
Concentration in liver [6, 9]: 42 000 (15) ng g^–1
Concentration in skin [6, 9]: 3900 (25) ng g^–1
Concentration in blood [6, 8]: 770 (26) ng g^–1
Concentration in muscle [6, 8]: 630 (28) ng g^–1
Concentration in skin, per surface area [6, 8]: 310 ng cm-2

CCCCCCCCCN(C)C [T9, N,N-dimethylnonylamine]
Apparent bioconcentration factor (BCFapp) [1, 10]: 5.4 L kg-1 wet weight
Gill-water distribution coefficient (DG-W) [2]: 0.30 mLcm-2
Mucus-water distribution coefficient (DMuc-W) [2]: 0.29 mL cm-2
pKa [3]: 9.5
Log KMW,C (membrane-water partition coefficient of the charged form) [4]: 3.07
Concentration in blood ([6]; exposed fish #1): 305 ng/g
Concentration in gills ([6]; exposed fish #1): 1126 ng/g
Concentration in gills, surface area-normalized ([6]; exposed fish #1): 15.7 ng cm-2
Concentration in liver ([6]; exposed fish #1): 3588 ng/g
Concentration in mucus ([6]; exposed fish #1): 19 ng cm-2
Concentration in muscle ([6]; exposed fish #1): 173 ng/g
Concentration in skin, per surface area ([6]; exposed fish #1): 48 ng cm-2
Concentration in blood ([6]; exposed fish #2): 334 ng/g
Concentration in gills ([6]; exposed fish #2): 1320 ng/g
Concentration in gills, surface area-normalized ([6]; exposed fish #2): 17.4 ng cm-2
Concentration in liver ([6]; exposed fish #2): 2592 ng/g
Concentration in mucus ([6]; exposed fish #2): 17 ng cm-2
Concentration in muscle ([6]; exposed fish #2): 173 ng/g
Concentration in skin, per surface area ([6]; exposed fish #2): 32 ng cm-2
Concentration in blood ([6]; exposed fish #3): 475 ng/g
Concentration in gills ([6]; exposed fish #3): 1432 ng/g
Concentration in liver ([6]; exposed fish #3): 2863 ng/g
Concentration in mucus ([6]; exposed fish #3): 15 ng cm-2
Concentration in muscle ([6]; exposed fish #3): 200 ng/g
Concentration in skin, per surface area ([6]; exposed fish #3): 28 ng cm-2
Concentration in blood ([6]; exposed fish #4): 251 ng/g
Concentration in gills ([6]; exposed fish #4): 1130 ng/g
Concentration in gills, surface area-normalized ([6]; exposed fish #4): 17.5 ng cm-2
Concentration in liver ([6]; exposed fish #4): 1593 ng/g
Concentration in mucus ([6]; exposed fish #4): 18 ng cm-2
Concentration in muscle ([6]; exposed fish #4): 146 ng/g
Concentration in skin, per surface area ([6]; exposed fish #4): 32 ng cm-2
Concentration in blood ([6]; exposed fish #5): 323 ng/g
Concentration in gills ([6]; exposed fish #5): 1240 ng/g
Concentration in gills, surface area-normalized ([6]; exposed fish #5): 17.6 ng cm-2
Concentration in liver ([6]; exposed fish #5): 5463 ng/g
Concentration in mucus ([6]; exposed fish #5): 12 ng cm-2
Concentration in muscle ([6]; exposed fish #5): 158 ng/g
Concentration in skin, per surface area ([6]; exposed fish #5): 28 ng cm-2
Concentration in blood ([6]; exposed fish #6): 291 ng/g
Concentration in gills ([6]; exposed fish #6): 869 ng/g
Concentration in gills, surface area-normalized ([6]; exposed fish #6): 11.3 ng cm-2
Concentration in liver ([6]; exposed fish #6): 7230 ng/g
Concentration in mucus ([6]; exposed fish #6): 9 ng cm-2
Concentration in muscle ([6]; exposed fish #6): 111 ng/g
Concentration in skin, per surface area ([6]; exposed fish #6): 19 ng cm-2
Concentration in blood ([6]; mean of exposed fish, Table S10): 330 ng/g
Concentration in muscle ([6]; mean of exposed fish, Table S11): 160 ng/g
Concentration in liver ([6]; mean of exposed fish, Table S12): 3887 ng/g
Concentration in gills [6, 11]: 1186 ng/g
Concentration in gills, surface area-normalized [6, 11]: 15.9 ng cm-2
Concentration in skin, per surface area ([6]; mean of exposed fish, Table S14): 31 ng cm-2
Concentration in mucus ([6]; mean of exposed fish, Table S15): 15 ng cm-2
Concentration in mucus ([6]; methanol rinse normalized to fish surface area, mean of six fish (RSD %)): 15 (24) ng cm^–2
Concentration in gills ([6]; wet weight, mean of fish (RSD %), 7 d exposure): 1190 (16) ng g^–1
Concentration in blood ([6]; wet weight, mean of six fish (RSD % in brackets), 7 d exposure, Q10 below LOQ): 330 (23) ng g^–1
Concentration in liver [6, 12]: 3900 (49) ng g^–1
Concentration in muscle [6, 12]: 160 (19) ng g^–1
Concentration in skin [6, 12]: 390 (40) ng g^–1

CCCCCCCCCCCCCCCCN [P16, hexadecylamine]
Log KMW,C (membrane-water partition coefficient of the charged form), extrapolated [7]: 7.90
pKa [3]: 10.5
concentration at 7 d ([5]; Concentration in skin): 415 ng/g
concentration at 7 d ([5]; pH 7.5, Concentration in blood): 119 ng/g
concentration at 7 d ([5]; pH 7.5, Concentration in gills): 7960 ng/g
concentration at 7 d ([5]; pH 7.5, Concentration in liver): 5450 ng/g
concentration at 7 d ([5]; pH 7.5, Concentration in muscle): 90 ng/g
concentration at 7 d ([5]; pH 7.5, Concentration in skin): 364 ng/g
Concentration in gills [6, 9]: 8700 (15) ng g^–1
Concentration in liver [6, 9]: 5500 (10) ng g^–1
Concentration in skin [6, 9]: 420 (25) ng g^–1
Concentration in blood [6, 8]: 130 (19) ng g^–1
Concentration in muscle [6, 8]: 111 (22) ng g^–1
Concentration in skin, per surface area [6, 8]: 30 ng cm-2

CCCCCCCCCN [P9, Nonylamine]
Apparent bioconcentration factor (BCFapp) [1, 10]: 3.3 L kg-1 wet weight
Gill-water distribution coefficient (DG-W) [2]: 0.44 mLcm-2
Mucus-water distribution coefficient (DMuc-W) [2]: 0.47 mL cm-2
pKa [3]: 10.5
Log KMW,C (membrane-water partition coefficient of the charged form) [4]: 3.72
concentration at 7 d ([5]; pH 7.5, Concentration in gills): 1040 ng/g
concentration at 7 d ([5]; pH 7.5, Concentration in skin): 70 ng/g
Concentration in gills [6, 9]: 1200 (12) ng g^–1
Concentration in liver [6, 9]: 1710 (40) ng g^–1
Concentration in skin [6, 9]: 132 (36) ng g^–1
Concentration in blood [6, 8]: 46 (29) ng g^–1
Concentration in muscle [6, 8]: 27 (39) ng g^–1
Concentration in skin, per surface area [6, 8]: 11.6 ng cm-2
